Read-outs that look alike come from different tables or passages of the source.
Experiments:
[1] = tested on: HIV-1 strains; test: microbe, parasite or virus in culture; assay type: cell-based
Experimental: (§1) Fresh human PBMCs were isolated from screened donors, seronegative for HIV and hepatitis B virus. Cells were pelleted/washed 2-3 times by low speed centrifugation and resuspended in Dulbecco’s phosphate buffered saline (PBS) to remove contaminating platelets. The leukophoresed blood was then diluted 1:1 with PBS and layered over 14 ml of Ficoll-Hypaque density gradient (Lymphocyte Separation Medium, Cell Grow #85-072-CL, density 1.078 +/- 0.002 gm/ml) in a 50 ml centrifuge tube and then centrifuged for 30 min at 600g. Banded PBMCs were gently aspirated from the resulting interface and subsequently washed twice with PBS by low speed centrifugation. After the final wash, cells were counted by trypan blue exclusion and resuspended at 1 x 10^7 cells/ml in RPMI 1640 supplemented with 15% Fetal Bovine Serum (FBS), 2 mM L-glutamine, 4 µg/ml PHA-P. The cells were allowed to incubate for 48-72 h at 37°C. After incubation, PBMCs were centrifuged and resuspended in RPMI 1640 with 15% FBS, 2 mM L-glutamine, 100 U/ml penicillin, 100 µg/ml streptomycin, 10 µg/ml gentamycin, and 20 U/ml recombinant human IL-2. PBMCs were maintained in this medium at a concentration of 1-2 x 10^6 cells/ml with biweekly medium changes until used in the assay protocol. Monocytes were depleted from the culture as the result of adherence to the tissue culture flask.
For the standard PBMC assay, PHA-P stimulated cells from at least two normal donors were pooled, diluted in fresh medium to a final concentration of 1 x 10^6 cells/ml, and plated in the wells of a 96-well round bottom microplate at 50 µl/well (5 x 10^4 cells/well). […] Fifty microlitres of a predetermined dilution of virus stock was placed in each test well (final MOI ≅ 0.1). Wells with cells and virus alone were used for virus control. […] The PBMC cultures were maintained for seven days following infection, at which time cell-free supernate samples were collected and assayed for reverse transcriptase activity as described below.
A microtiter plate-based reverse transcriptase (RT) reaction was utilized. Tritiated thymidine triphosphate (^3H-TTP, 80 Ci/mmol, NEN) was received in 1:1 dH2O:ethanol at 1 mCi/ml. PolyrA:oligodT template-primer (Pharmacia) was prepared as a stock solution by combining 150 µl polyrA (20 mg/ml) with 0.5 ml oligodT (20 units/ml) and 5.35 ml sterile dH2O followed by aliquoting (1.0 ml) and storage at -20°C. The RT reaction buffer was prepared fresh on a daily basis and consisted of 125 µl 1.0 M EGTA, 125 µl dH2O, 125 µl 20% Triton X100, 50 µl 1.0 M Tris (pH 7.4), 50 µl 1.0 M DTT, and 40 µl 1.0 M MgCl2. The final reaction mixture was prepared by combining 1 part ^3H-TTP, 4 parts dH2O, 2.5 parts polyrA:oligodT stock and 2.5 parts reaction buffer. Ten microliters of this reaction mixture was placed in a round bottom microtiter plate and 15 µl of virus containing supernatant was added and mixed. The plate was incubated at 37°C for 60 min. Following incubation, the reaction volume was spotted onto DE81 filter-mats (Wallac), washed 5 times for 5 min each in a 5% sodium phosphate buffer or 2X saline sodium citrate (SSC, Life Technologies), 2 times for 1 min each in distilled water, 2 times for 1 min each in 70% ethanol, and then dried. Incorporated radioactivity (counts per minute, CPM) was quantified using standard liquid scintillation techniques.
(§2) The plate was read spectrophotometrically at 490/650 nm with a Molecular Devices Vmax plate reader

[2] = tested on: R5 (ADA) HIV-1 envelope mediated cell-to-cell fusion; test: Cell-to-cell fusion assay, R5 envelope; assay type: cell-based
Experimental: (§3) The gp120 gene from the R5 HIV-1 strain ADA and X4 HIV-1 strain HXB2 was cloned into a HIV-1 Env expression vector. Briefly, the 2.1 kb HIV-1 env within Kpn I and Bam HI restriction sites was cloned from viral genomic DNA into pSVIII-HXB2 Env expression vector [67]. The pcDNA3-CD4, pcDNA3-CCR5 and pcDNA3-CXCR4 plasmids express human CD4, R5 and X4 respectively. pSVTat expresses the HIV-1 Tat protein. Cell-cell fusion assays were conducted as described previously. Briefly, Cf2-Luc target cells seeded in 25 cm^2 tissue culture flasks were transfected with 1 µg of CD4 plasmid and 3 µg of R5 or X4 plasmid. 293T effector cells seeded in 6-well tissue culture plates were co-transfected with 3.4 µg of ADA or HXB2 gp120-expressing plasmid and 0.6 µg pSVTat. Target and effector cells were transfected using Lipofectamine 2000 (Invitrogen) according to the manufacturers' protocol. Effector cells expressing ADA or HXB2 Env were pre-incubated in DMEM-10 containing 10-fold increasing concentrations of efavarenz, T-20, dendrimer or no drug (untreated controls) for 30 min at 37°C. Approximately 2×10^4 effector cells were added to 2×10^4 Cf2-Luc target cells and were incubated at 37°C in replicate wells containing 200 µl of culture. Cells from replicate wells were harvested at 7 h post-mixing and assayed for luciferase activity (Promega) according to the manufacturers' protocol. […]

[3] = tested on: HIV-1 NL4.3; test: Time of addition assay in TZM-bl cells; assay type: cell-based
Experimental: TZM-bl cells were seeded in 96-well tissue culture plates at 2.5×10^4 cells per well in 100 µl of DMEM-10. Cells were grown for 12 h at 37°C in 5% CO2 after which triplicate wells were infected with NL4.3 at a multiplicity of infection of one by spinoculation. Briefly, DMEM-10 was removed from cells and replaced with 100 µl of virus in DMEM-10 and plates were centrifuged at 1200 g for 60 min at 17°C. Viral inoculum was removed and cells washed twice with 250 µl of cold DMEM-10 after which 100 µl of DMEM-10 or DMEM-10 containing drug was added at t = 0 to appropriate cells. DMEM-10 containing drug was subsequently added at t = 2, 3, 4, 5, 6, 8 and 24 h post infection to appropriate wells. At 31 h postinfection, HIV-1 replication was determined by measuring luciferase activity as above.

[4] = tested on: X4 (HXB2) HIV-1 envelope mediated cell-to-cell fusion; test: Cell-to-cell fusion assay, X4 envelope; assay type: cell-based
Experimental: as §3

[5] = tested on: HIV-2 strains; test: Anti-HIV activity in PHA-stimulated human PBMCs, supernatant RT activity readout; assay type: cell-based; details: PBMC
Experimental: as §1
For the standard PBMC assay, PHA-P stimulated cells from at least two normal donors were pooled, diluted in fresh medium to a final concentration of 1 x 10^6 cells/ml, and plated in the wells of a 96-well round bottom microplate at 50 µl/well (5 x 10^4 cells/well). […] Fifty microlitres of a predetermined dilution of virus stock was placed in each test well (final MOI ≅ 0.1). Wells with cells and virus alone were used for virus control. […]
A microtiter plate-based reverse transcriptase (RT) reaction was utilized. […] Incorporated radioactivity (counts per minute, CPM) was quantified using standard liquid scintillation techniques.
as §2

[6] = tested on: HSV-2 strain G; set-up: method as in PMID 16740164; details: mouse, single dose; cited from earlier work
[7] = PBMC, multi-drug resistant HIV-1 MDR769

Dextran Sulfate
EC50 [1, 7]: 1.25 µg/mL
SI [1, 7]: >80

maraviroc
inhibition of cell-to-cell fusion [2]: failed to inhibit fusion

c1cc(CN2CCCNCCNCCCNCC2)ccc1CN1CCCNCCNCCCNCC1 [AMD3100]
time of addition result ([3]; dendrimers at 20 and 100 µg/ml): failed to block HIV-1 replication if the drug was added after virus addition
inhibition of cell-to-cell fusion [4]: failed to inhibit fusion

O=C1Nc2ccc(Cl)cc2[C@@](C#CC2CC2)(C(F)(F)F)O1 [efavirenz]
inhibition of cell-to-cell fusion [2]: did not inhibit cell-to-cell fusion
inhibition of cell-to-cell fusion [4]: did not inhibit cell-to-cell fusion

Cc1ccnc2c1NC(=O)c1cccnc1N2C1CC1 [nevirapine]
time post infection that addition could be delayed before loss of HIV-1 inhibitory activity [3]: up to 6 h

Cc1cn([C@H]2C[C@H](N=[N+]=[N-])[C@@H](CO)O2)c(=O)[nH]c1=O [AZT, zidovudine]
EC50 ([1]; Human immunodeficiency virus 1, CCR5, PBMC, Clade A (92RW016), CCR5): 2 nM
EC50 ([1]; Human immunodeficiency virus 1, CCR5, PBMC, Clade B (302056), CCR5): 10 nM
EC50 ([1]; Human immunodeficiency virus 1, CCR5, PBMC, Clade C (92BR025), CCR5): 4 nM
EC50 ([1]; Human immunodeficiency virus 1, CCR5, PBMC, Clade G (JV1083), CCR5): 4 nM
EC50 ([1]; Human immunodeficiency virus 1, CCR5, PBMC, Clade O (BCF01), CCR5): 4 nM
EC50 ([1]; Human immunodeficiency virus 1, CCR5, PBMC, SLKA (NSI), CCR5): 4 nM
EC50 ([1]; Human immunodeficiency virus 1, CCR5, PBMC, TEKI (NSI), CCR5): 2 nM
EC50 ([1]; Human immunodeficiency virus 1, PBMC, PBMC, Clade D (92UG046), CXCR4): 3 nM
EC50 ([1]; Human immunodeficiency virus 1, PBMC, PBMC, Clade EA (CMU02), CXCR4): 8 nM
EC50 ([1]; Human immunodeficiency virus 1, PBMC, PBMC, Clade F (93BR020), dual tropic): 2 nM
EC50 ([1]; Human immunodeficiency virus 1, PBMC, PBMC, ROJO (SI), CXCR4): 2 nM
EC50 ([1]; Human immunodeficiency virus 1, PBMC, PBMC, WEJO (SI), CXCR4): 0.3 nM
EC50 ([1]; Human immunodeficiency virus 1, PBMC, read-out: EC50 of positive control, assay validation, PBMC assays): ≤ 10 nM
SI ([1]; PBMC, Clade A (92RW016)): >500
SI ([1]; PBMC, Clade B (302056)): >100
SI ([1]; PBMC, Clade C (92BR025)): >250
SI ([1]; PBMC, Clade D (92UG046)): >333
SI ([1]; PBMC, Clade EA (CMU02)): >125
SI ([1]; PBMC, Clade F (93BR020)): >500
SI ([1]; PBMC, Clade G (JV1083)): >250
SI ([1]; PBMC, Clade O (BCF01)): >250
SI ([1]; PBMC, ROJO (SI)): >500
SI ([1]; PBMC, SLKA (NSI)): >250
SI ([1]; PBMC, TEKI (NSI)): >500
SI ([1]; PBMC, WEJO (SI)): >3333
EC50 ([5]; Human immunodeficiency virus 2, HIV-2 CBL-20, AZT column): 1 nM
SI ([5]; HIV-2 CBL-20): >1000
SI ([5]; HIV-2 CDC 310319): >1000

CCCCCCCCCc1ccc(OCCOCCOCCOCCOCCOCCOCCOCCOCCO)cc1 [nonoxynol 9]
susceptibility to HSV-2 infection after exposure [6]: susceptibility is greatly increased

Source: article PMC2925893, “Structure Activity Relationship of Dendrimer Microbicides with Dual Action Antiviral Activity” (PLoS ONE, 2010)
